# Measured values reported in the supplement of paper PMC11061612.
# Key:
# Test in all cases: Bliss excess, mean over the matrix (fraction); higher = more synergy
# [1] = test system: BT-549 (Breast Carcinoma)
# Outline: (§1)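 Cell lines in DMEM/F12 or RPMI with 10% FBS were plated in 1536-well plates, held 24 hours at 37°C, 5% CO2, then given two-drug dose matrices for 72 hours (DMSO typically 0.2%). Viability was read by CellTiter-Glo 2.0 luminescence and scaled as inhibition from 0 (vehicle wells) to 1 (blank wells). Combination Emax is the second-highest inhibition in the matrix; Bliss excess is observed combination effect minus expected EA + EB − EA·EB, EA and EB being single-agent effects.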
# [2] = test system: C-4-I (Cervical Carcinoma)
# Outline: as §1
# [3] = test system: EFM-19 (Breast Carcinoma)
# Outline: as §1
# [4] = test system: HGC-27 (Gastric Carcinoma)
# Outline: as §1
# [5] = test system: HOP-62 (Lung Adenocarcinoma)
# Outline: as §1
# [6] = test system: Hs-766T (Pancreatic Carcinoma)
# Outline: as §1
# [7] = test system: KMOE-2 (Acute Myeloid Leukemia)
# Outline: as §1
# [8] = test system: LU-65 (Non-Small Cell Lung Carcinoma)
# Outline: as §1
# [9] = test system: MIA-PaCa-2 (Pancreatic Carcinoma)
# Outline: as §1
# [10] = test system: MLMA (Other Blood Carcinomas)
# Outline: as §1
# [11] = test system: NCI-H1915 (Non-Small Cell Lung Carcinoma)
# Outline: as §1
# [12] = test system: NCI-H358 (Lung Adenocarcinoma)
# Outline: as §1
# [13] = test system: NEC8 (Other Solid Carcinomas)
# Outline: as §1
# [14] = test system: NUGC-3 (Gastric Carcinoma)
# Outline: as §1
# [15] = test system: OVCAR-4 (Ovarian Carcinoma)
# Outline: as §1
# [16] = test system: PANC-04-03 (Pancreatic Carcinoma)
# Outline: as §1
# PWR-1E (Non-Cancerous) = test system: PWR-1E (Non-Cancerous)
# Outline: as §1
# [17] = test system: SU8686 (Pancreatic Carcinoma)
# Outline: as §1
# [18] = test system: SW13 (Other Solid Carcinomas)
# Outline: as §1
# [19] = test system: VA-ES-BJ (Other Solid Carcinomas)
# Outline: as §1
compound,measurement,setting,value
"NC1(C(=O)N[C@@H](CCO)c2ccc(Cl)cc2)CCN(c2ncnc3[nH]ccc23)CC1 [Capivasertib] + CC(C)n1c(=O)n(C)c2cnc3cc(F)c(-c4ccc(OCCCN5CCCCC5)nc4)cc3c21 [AZD1390] (first compound max 10 µM, 7x7, partner max 0.3 µM)",Bliss excess,[1],-0.071
same,Bliss excess,[2],-0.027
same,Bliss excess,[3],-0.0614
same,Bliss excess,[4],-0.053
same,Bliss excess,[5],-0.0893
same,Bliss excess,[6],-0.082
same,Bliss excess,[7],-0.0666
same,Bliss excess,[8],-0.248
same,Bliss excess,[9],-0.048
same,Bliss excess,[10],-0.0216
same,Bliss excess,[11],-0.0621
same,Bliss excess,[12],-0.0088
same,Bliss excess,[13],-0.0089
same,Bliss excess,[14],-0.0372
same,Bliss excess,[15],-0.0488
same,Bliss excess,[16],-0.0997
same,Bliss excess,PWR-1E (Non-Cancerous),-0.0341
same,Bliss excess,[17],-0.0484
same,Bliss excess,[18],0.0127
same,Bliss excess,[19],-0.0467
"Cn1cnc2c(F)c(Nc3ccc(Br)cc3Cl)c(C(=O)NOCCO)cc21 [Selumetinib] + CC(C)n1c(=O)n(C)c2cnc3cc(F)c(-c4ccc(OCCCN5CCCCC5)nc4)cc3c21 [AZD1390] (first compound max 10 µM, 7x7, partner max 0.3 µM)",Bliss excess,[1],-0.0438
same,Bliss excess,[2],-0.0078
same,Bliss excess,[3],-0.0264
same,Bliss excess,[4],-0.0129
same,Bliss excess,[5],-0.0451
same,Bliss excess,[6],-0.0215
same,Bliss excess,[7],0.0296
same,Bliss excess,[8],0.0027
same,Bliss excess,[9],-0.0287
same,Bliss excess,[10],-0.0186
same,Bliss excess,[11],-0.061
same,Bliss excess,[12],-0.03
same,Bliss excess,[13],-0.0268
same,Bliss excess,[14],-0.0347
same,Bliss excess,[15],-0.0512
same,Bliss excess,[16],-0.0287
same,Bliss excess,PWR-1E (Non-Cancerous),-0.0467
same,Bliss excess,[17],-0.0255
same,Bliss excess,[18],0.0129
same,Bliss excess,[19],-0.0471
"COc1cccc(OCCCN)c1-c1cc(Nc2cnc(C#N)cn2)n[nH]1 [Prexasertib] + CN(C)CCCOc1ccc(-c2ccc3ncc4c(c3c2)n(C2CCOCC2)c(=O)n4C)cn1 [AZD0156] (first compound max 1 µM, 7x7, partner max 1 µM)",Bliss excess,[1],-0.0094
same,Bliss excess,[2],-0.0273
same,Bliss excess,[3],-0.0701
same,Bliss excess,[4],-0.0193
same,Bliss excess,[5],-0.0042
same,Bliss excess,[6],-0.0062
same,Bliss excess,[7],-0.0363
same,Bliss excess,[8],-0.023
same,Bliss excess,[9],-0.0391
same,Bliss excess,[10],-0.0349
same,Bliss excess,[11],-0.0086
same,Bliss excess,[12],-0.034
same,Bliss excess,[13],-0.009
same,Bliss excess,[14],0.0083
same,Bliss excess,[15],0.0086
same,Bliss excess,[16],-0.0328
same,Bliss excess,PWR-1E (Non-Cancerous),-0.0276
same,Bliss excess,[17],-0.0068
same,Bliss excess,[18],0.0256
same,Bliss excess,[19],-0.0395
"CCN(CCO)CCCOc1ccc2c(Nc3cc(CC(=O)Nc4cccc(F)c4)[nH]n3)ncnc2c1 [AZD2811] + C[C@@H]1COCCN1C2=NC(=NC(=C2)C3(CC3)[S@](=N)(=O)C)C4=C5C=CNC5=NC=C4 [AZD6738] (first compound max 1 µM, 7x7, partner max 10 µM)",Bliss excess,[1],0.0066
same,Bliss excess,[2],-0.0263
same,Bliss excess,[3],-0.0478
same,Bliss excess,[4],-0.0885
same,Bliss excess,[5],-0.0313
same,Bliss excess,[6],-0.0734
same,Bliss excess,[7],-0.032
same,Bliss excess,[8],-0.0777
same,Bliss excess,[9],-0.0797
same,Bliss excess,[10],-0.0692
same,Bliss excess,[11],0.0021
same,Bliss excess,[12],0.0096
same,Bliss excess,[13],0.0487
same,Bliss excess,[14],0.004
same,Bliss excess,[15],-0.0179
same,Bliss excess,[16],-0.0563
same,Bliss excess,PWR-1E (Non-Cancerous),-0.0472
same,Bliss excess,[17],-0.034
same,Bliss excess,[18],0.0474
same,Bliss excess,[19],-0.0217
"CN(C)CCCOc1ccc(-c2ccc3ncc4c(c3c2)n(C2CCOCC2)c(=O)n4C)cn1 [AZD0156] + CCN(CCO)CCCOc1ccc2c(Nc3cc(CC(=O)Nc4cccc(F)c4)[nH]n3)ncnc2c1 [AZD2811] (first compound max 1 µM, 7x7, partner max 1 µM)",Bliss excess,[1],-0.0028
same,Bliss excess,[2],-0.0074
same,Bliss excess,[3],-0.0331
same,Bliss excess,[4],-0.0352
same,Bliss excess,[5],-0.046
same,Bliss excess,[6],-0.0411
same,Bliss excess,[7],0.0096
same,Bliss excess,[8],0.0441
same,Bliss excess,[9],0.0369
same,Bliss excess,[10],-0.0431
same,Bliss excess,[11],0.0174
same,Bliss excess,[12],-0.0214
same,Bliss excess,[13],0.0233
same,Bliss excess,[14],0.0312
same,Bliss excess,[15],-0.0148
same,Bliss excess,[16],-0.0644
same,Bliss excess,PWR-1E (Non-Cancerous),0.0831
same,Bliss excess,[17],-0.0375
same,Bliss excess,[18],0.0259
same,Bliss excess,[19],0.0248
"CC(=O)c1c(C)c2cnc(Nc3ccc(N4CCNCC4)cn3)nc2n(C2CCCC2)c1=O [Palbociclib] + Cc1c2c(nn1C)CSCc1cc(n(C)n1)CSc1cc(c3ccccc3c1)OCCCc1c(C(=O)O)n(C)c3c-2c(Cl)ccc13 [AZD5991] (first compound max 10 µM, 7x7, partner max 1 µM)",Bliss excess,[1],0.0106
same,Bliss excess,[2],-0.115
same,Bliss excess,[3],-0.0005
same,Bliss excess,[4],-0.0219
same,Bliss excess,[5],-0.0573
same,Bliss excess,[6],-0.067
same,Bliss excess,[7],-0.0002
same,Bliss excess,[8],-0.0692
same,Bliss excess,[9],0.0265
same,Bliss excess,[10],-0.0442
same,Bliss excess,[11],-0.0526
same,Bliss excess,[12],-0.0249
same,Bliss excess,[13],0.0111
same,Bliss excess,[14],-0.134
same,Bliss excess,[15],-0.0337
same,Bliss excess,[16],-0.0464
same,Bliss excess,PWR-1E (Non-Cancerous),0.0128
same,Bliss excess,[17],-0.0405
same,Bliss excess,[18],0.0252
same,Bliss excess,[19],-0.0101
"Cc1c2c(nn1C)CSCc1cc(n(C)n1)CSc1cc(c3ccccc3c1)OCCCc1c(C(=O)O)n(C)c3c-2c(Cl)ccc13 [AZD5991] + C[C@@H]1COCCN1C2=NC(=NC(=C2)C3(CC3)[S@](=N)(=O)C)C4=C5C=CNC5=NC=C4 [AZD6738] (first compound max 1 µM, 7x7, partner max 10 µM)",Bliss excess,[1],0.0869
same,Bliss excess,[2],0.0416
same,Bliss excess,[3],0.0543
same,Bliss excess,[4],0.0562
same,Bliss excess,[5],0.0213
same,Bliss excess,[6],0.0201
same,Bliss excess,[7],0.0168
same,Bliss excess,[8],-0.0405
same,Bliss excess,[9],0.0652
same,Bliss excess,[10],-0.0392
same,Bliss excess,[11],0.0212
same,Bliss excess,[12],-0.0334
same,Bliss excess,[13],0.1
same,Bliss excess,[14],0.0119
same,Bliss excess,[15],-0.0472
same,Bliss excess,[16],0.0027
same,Bliss excess,PWR-1E (Non-Cancerous),0.005
same,Bliss excess,[17],-0.008
same,Bliss excess,[18],0.0363
same,Bliss excess,[19],0.0023
"CN(C)CCCOc1ccc(-c2ccc3ncc4c(c3c2)n(C2CCOCC2)c(=O)n4C)cn1 [AZD0156] + C[C@@H]1COCCN1C2=NC(=NC(=C2)C3(CC3)[S@](=N)(=O)C)C4=C5C=CNC5=NC=C4 [AZD6738] (first compound max 1 µM, 7x7, partner max 10 µM)",Bliss excess,[1],-0.0042
same,Bliss excess,[2],0.0071
same,Bliss excess,[3],-0.0264
same,Bliss excess,[4],0.0357
same,Bliss excess,[5],-0.0232
same,Bliss excess,[6],0.0079
same,Bliss excess,[7],-0.0252
same,Bliss excess,[8],0.021
same,Bliss excess,[9],-0.0055
same,Bliss excess,[10],-0.0132
same,Bliss excess,[11],0.0366
same,Bliss excess,[12],0.0219
same,Bliss excess,[13],0.072
same,Bliss excess,[14],0.064
same,Bliss excess,[15],0.0213
same,Bliss excess,[16],-0.0398
same,Bliss excess,PWR-1E (Non-Cancerous),-0.0357
same,Bliss excess,[17],0.0025
same,Bliss excess,[18],0.0112
same,Bliss excess,[19],0.0085
"COc1nnc2ccc(N3CCC(c4ccc(OCCN5CCN(C)C(=O)[C@H]5C)cc4)CC3)nn12 [AZD5153] + C[C@@H]1COCCN1C2=NC(=NC(=C2)C3(CC3)[S@](=N)(=O)C)C4=C5C=CNC5=NC=C4 [AZD6738] (first compound max 1 µM, 7x7, partner max 10 µM)",Bliss excess,[1],-0.0139
same,Bliss excess,[2],0.0654
same,Bliss excess,[3],0.0541
same,Bliss excess,[4],-0.0376
same,Bliss excess,[5],-0.0276
same,Bliss excess,[6],-0.0137
same,Bliss excess,[7],0.0743
same,Bliss excess,[8],-0.0292
same,Bliss excess,[9],0.0077
same,Bliss excess,[10],-0.111
same,Bliss excess,[11],-0.0054
same,Bliss excess,[12],-0.0855
same,Bliss excess,[13],0.0124
same,Bliss excess,[14],0.0398
same,Bliss excess,[15],0.0127
same,Bliss excess,[16],-0.008
same,Bliss excess,PWR-1E (Non-Cancerous),0.0015
same,Bliss excess,[17],-0.0329
same,Bliss excess,[18],-0.022
same,Bliss excess,[19],0.0315
"COc1cccc(OCCCN)c1-c1cc(Nc2cnc(C#N)cn2)n[nH]1 [Prexasertib] + CCc1c2c(nc3ccc(O)cc13)-c1cc3c(c(=O)n1C2)COC(=O)[C@]3(O)CC [SN-38] (first compound max 1 µM, 7x7, partner max 0.3 µM)",Bliss excess,[1],-0.0474
same,Bliss excess,[2],0.0026
same,Bliss excess,[3],0.155
same,Bliss excess,[4],0.0388
same,Bliss excess,[5],-0.0279
same,Bliss excess,[6],-0.0063
same,Bliss excess,[7],0.0296
same,Bliss excess,[8],-0.0185
same,Bliss excess,[9],0.0334
same,Bliss excess,[10],-0.0732
same,Bliss excess,[11],0.0086
same,Bliss excess,[12],-0.0212
same,Bliss excess,[13],0.0129
same,Bliss excess,[14],0.0136
same,Bliss excess,[15],0.0476
same,Bliss excess,[16],-0.067
same,Bliss excess,PWR-1E (Non-Cancerous),0.0309
same,Bliss excess,[17],0.02
same,Bliss excess,[18],0.0459
same,Bliss excess,[19],-0.044
"CC1(C)CCC(CN2CCN(c3ccc(C(=O)NS(=O)(=O)c4ccc(NCC5CCOCC5)c([N+](=O)[O-])c4)c(Oc4cnc5[nH]ccc5c4)c3)CC2)=C(c2ccc(Cl)cc2)C1 [Venetoclax] + COc1cc(Nc2ncc3c(n2)-c2ccc(Cl)cc2C(c2c(F)cccc2OC)=NC3)ccc1C(=O)O [Alisertib] (first compound max 1 µM, 7x7, partner max 10 µM)",Bliss excess,[1],0.0371
same,Bliss excess,[2],-0.0158
same,Bliss excess,[3],-0.0049
same,Bliss excess,[4],0.0133
same,Bliss excess,[5],-0.0381
same,Bliss excess,[6],-0.0765
same,Bliss excess,[7],0.0304
same,Bliss excess,[8],-0.0164
same,Bliss excess,[9],-0.0131
same,Bliss excess,[10],-0.046
same,Bliss excess,[11],-0.0072
same,Bliss excess,[12],0.0186
same,Bliss excess,[13],-0.0037
same,Bliss excess,[14],0.0325
same,Bliss excess,[15],-0.0215
same,Bliss excess,[16],-0.0843
same,Bliss excess,PWR-1E (Non-Cancerous),-0.0103
same,Bliss excess,[17],-0.0438
same,Bliss excess,[18],0.0421
same,Bliss excess,[19],-0.0089
